Results as given in ChEMBL document CHEMBL1201862, “PubChem BioAssay data set” (2004).
Activity calls are given as the source filed them.

How the values were obtained:
[1] = biological target: T1, Corticotropin-releasing factor receptor 2/Corticotropin-releasing factor-binding protein (Homo sapiens, UniProt P24387+Q13324); assay: Dose Response confirmation of uHTS hits for small molecule antagonists of the CRF-binding protein and CRF-R2 receptor complex.; format: functional; conditions: read-out: IC50_Mean
T1 sequence (Q13324 whole entry): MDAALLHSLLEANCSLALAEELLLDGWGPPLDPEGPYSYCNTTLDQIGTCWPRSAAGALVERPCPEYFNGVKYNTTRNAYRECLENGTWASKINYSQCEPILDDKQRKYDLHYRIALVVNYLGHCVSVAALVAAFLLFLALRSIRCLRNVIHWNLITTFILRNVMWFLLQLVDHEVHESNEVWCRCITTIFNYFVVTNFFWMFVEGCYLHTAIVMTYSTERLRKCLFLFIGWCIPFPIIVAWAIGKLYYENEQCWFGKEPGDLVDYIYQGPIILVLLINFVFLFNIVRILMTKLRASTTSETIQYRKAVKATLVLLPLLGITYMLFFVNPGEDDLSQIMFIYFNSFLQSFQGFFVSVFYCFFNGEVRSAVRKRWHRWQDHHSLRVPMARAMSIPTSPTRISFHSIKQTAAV
T1 sequence (P24387 whole entry): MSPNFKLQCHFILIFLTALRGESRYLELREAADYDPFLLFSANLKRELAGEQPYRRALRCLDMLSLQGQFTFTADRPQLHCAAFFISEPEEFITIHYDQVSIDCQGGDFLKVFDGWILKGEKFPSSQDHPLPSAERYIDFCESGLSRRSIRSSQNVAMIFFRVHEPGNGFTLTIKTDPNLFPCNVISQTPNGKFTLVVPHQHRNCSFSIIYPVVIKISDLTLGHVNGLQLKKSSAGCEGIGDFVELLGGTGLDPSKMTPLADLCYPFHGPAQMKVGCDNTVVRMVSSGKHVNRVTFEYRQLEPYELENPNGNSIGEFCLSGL

[2] = biological target: G-protein coupled receptor 55 (Homo sapiens, UniProt Q9Y2T6); assay: GPR55 antagonists blocking LPI-driven arrestin recruitment, primary screen, imaging, U2OS, beta-arrestin-GFP, LPI agonist (AID 2013); format: functional;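 further: antagonist potency measured as reduced agonist-driven arrestin aggregation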
[3] = biological target: T2, Fatty acid synthase (Homo sapiens, UniProt P49327); assay: FAS thioesterase domain inhibitors, dose response, biochemical, endpoint fluorescence intensity, uHTS hits (AID 624327); format: functional;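 further: fluorescence from hydrolysis of an O-methyl fluorescein acyl ester substrate by the enzyme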
[4] = biological target: T2, Fatty acid synthase; assay: FAS thioesterase domain inhibitors, dose response, biochemical, kinetic fluorescence intensity (AID 624326); format: functional;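 further: rate of fluorescence rise from hydrolysis of a fluorogenic O-methyl fluorescein ester substrate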
[5] = biological target: T1, Corticotropin-releasing factor receptor 2/Corticotropin-releasing factor-binding protein; assay: activators of CRF receptor 2 with binding protein – uHTS hits, confirmation (AID 602473); format: functional; conditions: read-out: EC50_Mean
[6] = CRF-BP/CRF-R2 complex antagonists, dose response, cell-based, uHTS hits, 384-well (AID 651639); format: functional, Homo sapiens; conditions: read-out: IC50_Mean
[7] = biological target: T3, Sentrin-specific protease 1 (Homo sapiens, UniProt Q9P0U3); assay: potency of human SENP1 inhibitors, dose response, biochemical, kinetic FRET (AID 651697); format: functional; conditions: read-out: IC50_Mean
T3 sequence (Q9P0U3 whole entry): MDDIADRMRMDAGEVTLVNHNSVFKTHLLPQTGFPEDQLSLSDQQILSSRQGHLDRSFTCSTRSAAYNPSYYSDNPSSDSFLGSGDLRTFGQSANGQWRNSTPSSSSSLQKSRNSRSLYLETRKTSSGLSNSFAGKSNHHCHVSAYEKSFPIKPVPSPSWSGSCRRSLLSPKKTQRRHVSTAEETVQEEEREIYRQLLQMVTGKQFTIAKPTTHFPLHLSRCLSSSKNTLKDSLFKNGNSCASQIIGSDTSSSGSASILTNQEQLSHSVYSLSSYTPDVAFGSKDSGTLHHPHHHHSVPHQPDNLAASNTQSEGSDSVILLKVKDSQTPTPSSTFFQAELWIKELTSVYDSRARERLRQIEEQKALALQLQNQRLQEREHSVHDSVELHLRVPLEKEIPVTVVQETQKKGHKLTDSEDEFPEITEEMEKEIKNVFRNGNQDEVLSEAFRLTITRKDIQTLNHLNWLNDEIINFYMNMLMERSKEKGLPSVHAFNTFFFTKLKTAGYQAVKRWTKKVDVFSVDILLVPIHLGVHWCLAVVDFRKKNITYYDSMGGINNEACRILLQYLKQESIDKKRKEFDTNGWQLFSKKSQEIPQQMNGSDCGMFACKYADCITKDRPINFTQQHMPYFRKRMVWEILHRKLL

[8] = biological target: T3, Sentrin-specific protease 1; assay: Dose response confirmation of small molecule inhibitors of the catalytic domain of the SUMO protease, SENP1 in a FRET assay.; format: functional; conditions: read-out: IC50_Mean
[9] = biological target: Luciferin 4-monooxygenase (Photinus pyralis, UniProt P08659); assay: firefly luciferase enzyme inhibitors, dose response, biochemical, luminescence (AID 1891)
[10] = test system: Streptococcus sp. 'group A'; assay: growth inhibition of control SK(-) GAS strain, dose response, counter-screen for streptokinase expression inhibitor project, luminescence, kanamycin, BacTiterGlo, confirmation (AID 1900); format: functional, organism-based
[11] = cytotoxicity toward NIH3T3 fibroblasts, dose response, counter-screen, cell-based, ATP luminescence, mouse fibroblasts (AID 2010); format: functional;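 further: cells exposed to compound for about 90 hours before reading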
[12] = test system: Streptococcus; assay: Group A Streptococcus viability loss, dose response, counter-screen for streptokinase expression inhibitor project, luminescence, BacTiterGlo (AID 1915); format: functional, organism-based;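 further: potency for reduction of bacterial viability or growth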
[13] = Luminescence Cell-Based Dose Confirmation HTS to Identify Inhibitors of Platelet Dense Granule Release. [Related pubchem assays: 1663 (Primary HTS), 1678 (Summary of Project)]; format: functional
[14] = inhibitors of intracellular T. cruzi replication, confirmation, NIH3T3 host cells, beta-gal luminescence (AID 2044); format: functional, cell-based;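 further: intracellular parasites grown in NIH/3T3 mouse fibroblasts as host cells; luminescent beta-galactosidase reporter signal from transgenic T. cruzi replicating inside host cells; inhibitors lower the luminescence signal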
[15] = test system: HEK293; assay: inhibitors of LMP1-driven NF-kB reporter, dose response, cell-based, HEK293, luciferase, cherry-pick (AID 588343); format: functional; conditions: Homo sapiens
[16] = biological target: T4, Streptokinase A (Streptococcus pyogenes serotype M1, UniProt P10520); assay: S. pyogenes streptokinase expression inhibitors, potency, dose response, plasminogen activation absorbance, OD405 (AID 1914); format: functional, Streptococcus pyogenes M1 GAS;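 further: secreted streptokinase activity via plasminogen activation per viability signal from cell pellet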
T4 sequence (P10520 whole entry): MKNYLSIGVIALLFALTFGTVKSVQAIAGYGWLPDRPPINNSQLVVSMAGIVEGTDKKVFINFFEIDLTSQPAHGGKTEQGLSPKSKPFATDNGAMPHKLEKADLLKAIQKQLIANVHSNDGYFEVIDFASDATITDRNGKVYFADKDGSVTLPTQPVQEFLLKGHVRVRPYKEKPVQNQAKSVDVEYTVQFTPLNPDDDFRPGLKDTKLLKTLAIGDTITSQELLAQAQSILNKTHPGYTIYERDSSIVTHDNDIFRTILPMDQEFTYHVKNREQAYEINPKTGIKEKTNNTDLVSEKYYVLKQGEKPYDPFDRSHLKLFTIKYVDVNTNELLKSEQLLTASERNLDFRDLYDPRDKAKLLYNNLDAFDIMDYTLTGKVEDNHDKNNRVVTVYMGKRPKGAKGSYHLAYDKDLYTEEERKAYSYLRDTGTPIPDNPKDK

[17] = biological target: T5, Heat shock factor protein 1 (Mus musculus, UniProt P38532); assay: inhibition of MG132-induced HSE-luciferase signal, confirmation, cell-based, NIH3T3, luminescence, dose retest (AID 2382); format: functional;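 further: NIH3T3 fibroblasts with HSF1-driven luciferase reporter stressed by proteasome inhibitor MG132; luminescence from HSF1-driven luciferase expression after 8 hours of MG132 stress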
T5 sequence (P38532 whole entry): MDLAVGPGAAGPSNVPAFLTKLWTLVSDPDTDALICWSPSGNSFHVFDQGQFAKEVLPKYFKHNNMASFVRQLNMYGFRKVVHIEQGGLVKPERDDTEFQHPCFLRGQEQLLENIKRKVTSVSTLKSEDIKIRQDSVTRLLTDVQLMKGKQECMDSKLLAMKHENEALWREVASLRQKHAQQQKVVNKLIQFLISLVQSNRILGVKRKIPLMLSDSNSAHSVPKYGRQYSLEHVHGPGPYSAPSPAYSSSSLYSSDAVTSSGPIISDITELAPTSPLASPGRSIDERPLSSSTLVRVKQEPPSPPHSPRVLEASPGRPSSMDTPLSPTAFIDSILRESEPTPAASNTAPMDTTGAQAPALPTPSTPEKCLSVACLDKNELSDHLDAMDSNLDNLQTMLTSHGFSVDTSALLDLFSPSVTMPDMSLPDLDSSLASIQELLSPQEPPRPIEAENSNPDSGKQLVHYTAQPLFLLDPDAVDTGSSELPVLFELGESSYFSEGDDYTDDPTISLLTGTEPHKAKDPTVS

[18] = biological target: Glucose-6-phosphate 1-dehydrogenase (Homo sapiens, UniProt P11413); assay: human G6PD enzyme inhibitors, dose response, selectivity assay for P. falciparum G6PD inhibitor project, biochemical, fluorescence (AID 504792); format: functional
[19] = test system: Vero; assay: cells; format: functional, cell-based; conditions: Chlorocebus sabaeus
[20] = Shn3 3'UTR reporter inhibitors, dose response, cell-based, Clone20 osteoblasts, firefly luciferase, cherry-picked (AID 624132); format: functional;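 further: firefly luciferase luminescence from reporter carrying the Shn3 3'UTR in osteoblasts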
[21] = control 3'UTR Renilla luciferase suppression, dose response, counter-screen for Shn3 inhibitor project, cell-based, Clone20-Shn3RL, cherry-picked (AID 624133); format: functional
[22] = test system: Vero; assay: cells; format: functional; conditions: Chlorocebus sabaeus
[23] = HepG2 cell cytotoxicity, dose response, cytotoxicity control for Shn3 inhibitor project, CellTiter-Glo, cherry-picked (AID 624134); format: functional, cell-based
[24] = Luminescence Cell-Based Dose Retest to Confirm Inhibitors of Cancer Stem Cells. [Related pubchem assays (depositor defined):AID2717, AID2721]; format: functional; conditions: Homo sapiens
[25] = CEM21 lymphoblast cell cytotoxicity, dose response, cytotoxicity control for viral fusion inhibitor project, CellTiter-Glo luminescence, cherry-picked (AID 652042); format: functional, cell-based;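 further: potency for signal decrease meaning cytotoxicity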
[26] = inhibitors of clade B AD8 Env fusion, dose response, cell-based, cherry-pick (AID 652062); format: functional;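 further: luciferase signal from cell-cell fusion driven by HIV-1 clade B AD8 Env; potency is for inhibitors of fusion seen as a drop in luminescence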
[27] = off-target signal loss in HeLa-CEM21 co-culture – HeLa F-luc CTL cells, cherry-picked, counter-screen for HIV-1 Env fusion inhibitor project, dose response (AID 652040); format: functional, cell-based;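 further: potency for signal decrease marking cytotoxic or nonspecific inhibition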
[28] = inhibitors of HIV Env-driven cell fusion, dose response, cherry-pick (AID 652057); format: functional, cell-based

T2 sequence (P49327 whole entry, the tested form may be a part): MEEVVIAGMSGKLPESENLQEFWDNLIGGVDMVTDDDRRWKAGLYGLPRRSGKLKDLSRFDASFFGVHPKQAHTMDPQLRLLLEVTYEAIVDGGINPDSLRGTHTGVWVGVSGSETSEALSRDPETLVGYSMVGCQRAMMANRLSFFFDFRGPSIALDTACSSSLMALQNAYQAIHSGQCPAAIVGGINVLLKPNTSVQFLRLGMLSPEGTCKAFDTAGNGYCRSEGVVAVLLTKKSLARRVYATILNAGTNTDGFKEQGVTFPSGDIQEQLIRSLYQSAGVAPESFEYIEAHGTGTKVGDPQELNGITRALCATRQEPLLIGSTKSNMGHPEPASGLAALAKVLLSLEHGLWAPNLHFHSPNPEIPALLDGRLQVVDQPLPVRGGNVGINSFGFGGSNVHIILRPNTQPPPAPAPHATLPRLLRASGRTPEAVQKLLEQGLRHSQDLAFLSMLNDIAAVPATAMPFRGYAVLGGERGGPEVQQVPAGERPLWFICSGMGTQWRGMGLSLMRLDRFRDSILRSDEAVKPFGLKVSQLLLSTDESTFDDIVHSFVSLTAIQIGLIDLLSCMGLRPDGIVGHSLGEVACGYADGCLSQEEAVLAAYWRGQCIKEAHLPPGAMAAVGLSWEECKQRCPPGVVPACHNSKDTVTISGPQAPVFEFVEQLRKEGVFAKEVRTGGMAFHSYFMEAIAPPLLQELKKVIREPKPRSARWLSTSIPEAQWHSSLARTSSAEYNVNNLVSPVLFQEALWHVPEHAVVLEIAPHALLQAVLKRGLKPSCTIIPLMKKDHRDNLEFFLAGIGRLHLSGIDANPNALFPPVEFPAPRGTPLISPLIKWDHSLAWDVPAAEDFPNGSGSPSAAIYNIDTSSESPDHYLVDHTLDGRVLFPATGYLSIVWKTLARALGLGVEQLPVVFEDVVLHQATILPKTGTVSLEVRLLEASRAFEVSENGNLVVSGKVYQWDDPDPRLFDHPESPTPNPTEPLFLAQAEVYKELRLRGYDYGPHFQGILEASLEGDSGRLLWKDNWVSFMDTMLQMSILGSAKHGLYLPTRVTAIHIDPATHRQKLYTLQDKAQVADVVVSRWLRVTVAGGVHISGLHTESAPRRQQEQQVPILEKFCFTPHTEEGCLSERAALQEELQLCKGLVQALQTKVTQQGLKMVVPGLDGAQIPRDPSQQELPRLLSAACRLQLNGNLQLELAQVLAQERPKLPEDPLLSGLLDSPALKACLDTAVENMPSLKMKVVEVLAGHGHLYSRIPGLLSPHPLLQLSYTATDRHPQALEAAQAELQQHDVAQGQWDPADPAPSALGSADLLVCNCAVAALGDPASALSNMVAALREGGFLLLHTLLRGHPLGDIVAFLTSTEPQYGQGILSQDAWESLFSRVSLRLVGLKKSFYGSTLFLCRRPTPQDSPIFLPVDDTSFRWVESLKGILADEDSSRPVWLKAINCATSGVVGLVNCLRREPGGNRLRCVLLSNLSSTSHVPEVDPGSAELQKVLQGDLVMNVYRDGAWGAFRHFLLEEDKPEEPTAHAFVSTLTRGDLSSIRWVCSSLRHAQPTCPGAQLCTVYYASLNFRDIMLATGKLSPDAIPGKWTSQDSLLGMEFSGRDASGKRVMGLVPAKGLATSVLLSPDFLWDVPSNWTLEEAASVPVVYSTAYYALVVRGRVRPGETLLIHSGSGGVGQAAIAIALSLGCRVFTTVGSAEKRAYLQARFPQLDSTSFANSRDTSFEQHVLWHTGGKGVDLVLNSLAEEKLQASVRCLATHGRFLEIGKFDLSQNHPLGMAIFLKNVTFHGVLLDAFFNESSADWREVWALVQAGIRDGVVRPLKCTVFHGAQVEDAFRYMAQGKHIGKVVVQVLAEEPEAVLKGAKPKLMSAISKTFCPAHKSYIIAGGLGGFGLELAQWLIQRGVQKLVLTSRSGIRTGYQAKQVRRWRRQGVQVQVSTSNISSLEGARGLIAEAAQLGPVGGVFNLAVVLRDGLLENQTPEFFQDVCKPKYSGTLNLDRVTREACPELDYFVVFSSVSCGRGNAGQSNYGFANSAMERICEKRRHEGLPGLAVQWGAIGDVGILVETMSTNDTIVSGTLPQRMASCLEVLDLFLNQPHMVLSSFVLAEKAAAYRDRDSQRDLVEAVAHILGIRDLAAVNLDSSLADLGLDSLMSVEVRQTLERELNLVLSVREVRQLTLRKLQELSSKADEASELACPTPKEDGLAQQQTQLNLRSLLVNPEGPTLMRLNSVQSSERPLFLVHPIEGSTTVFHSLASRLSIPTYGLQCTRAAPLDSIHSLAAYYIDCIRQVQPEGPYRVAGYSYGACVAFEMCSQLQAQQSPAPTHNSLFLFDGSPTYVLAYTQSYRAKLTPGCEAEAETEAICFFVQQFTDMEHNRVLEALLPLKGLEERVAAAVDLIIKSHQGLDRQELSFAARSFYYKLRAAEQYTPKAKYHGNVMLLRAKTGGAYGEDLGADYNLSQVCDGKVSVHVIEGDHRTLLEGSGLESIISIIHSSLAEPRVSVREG
Sequence of Luciferin 4-monooxygenase (P08659 whole entry): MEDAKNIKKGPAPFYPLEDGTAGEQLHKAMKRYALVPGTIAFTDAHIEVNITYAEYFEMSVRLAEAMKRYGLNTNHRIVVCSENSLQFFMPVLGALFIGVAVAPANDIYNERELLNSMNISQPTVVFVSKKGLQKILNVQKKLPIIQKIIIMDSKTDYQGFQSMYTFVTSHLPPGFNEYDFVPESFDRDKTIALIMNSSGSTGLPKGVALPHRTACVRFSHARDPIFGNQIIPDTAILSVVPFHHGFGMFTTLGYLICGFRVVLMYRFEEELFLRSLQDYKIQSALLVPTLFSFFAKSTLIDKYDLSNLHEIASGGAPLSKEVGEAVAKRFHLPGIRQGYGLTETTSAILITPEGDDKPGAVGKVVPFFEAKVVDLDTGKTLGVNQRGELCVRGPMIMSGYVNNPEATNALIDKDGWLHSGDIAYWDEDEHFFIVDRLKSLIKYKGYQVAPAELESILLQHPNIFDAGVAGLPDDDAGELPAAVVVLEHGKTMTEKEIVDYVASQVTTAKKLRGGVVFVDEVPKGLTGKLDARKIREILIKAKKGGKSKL
Sequence of G-protein coupled receptor 55 (Q9Y2T6 whole entry, the tested form may be a part): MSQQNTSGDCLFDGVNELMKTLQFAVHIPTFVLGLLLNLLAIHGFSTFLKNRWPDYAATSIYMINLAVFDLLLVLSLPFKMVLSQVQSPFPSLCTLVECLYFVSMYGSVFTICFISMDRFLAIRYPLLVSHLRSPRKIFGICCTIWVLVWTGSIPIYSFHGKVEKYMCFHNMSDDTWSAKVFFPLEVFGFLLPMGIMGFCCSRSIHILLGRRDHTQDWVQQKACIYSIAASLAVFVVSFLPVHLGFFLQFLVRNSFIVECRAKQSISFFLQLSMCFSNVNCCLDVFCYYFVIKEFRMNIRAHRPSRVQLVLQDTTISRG
Sequence of Glucose-6-phosphate 1-dehydrogenase (P11413 whole entry): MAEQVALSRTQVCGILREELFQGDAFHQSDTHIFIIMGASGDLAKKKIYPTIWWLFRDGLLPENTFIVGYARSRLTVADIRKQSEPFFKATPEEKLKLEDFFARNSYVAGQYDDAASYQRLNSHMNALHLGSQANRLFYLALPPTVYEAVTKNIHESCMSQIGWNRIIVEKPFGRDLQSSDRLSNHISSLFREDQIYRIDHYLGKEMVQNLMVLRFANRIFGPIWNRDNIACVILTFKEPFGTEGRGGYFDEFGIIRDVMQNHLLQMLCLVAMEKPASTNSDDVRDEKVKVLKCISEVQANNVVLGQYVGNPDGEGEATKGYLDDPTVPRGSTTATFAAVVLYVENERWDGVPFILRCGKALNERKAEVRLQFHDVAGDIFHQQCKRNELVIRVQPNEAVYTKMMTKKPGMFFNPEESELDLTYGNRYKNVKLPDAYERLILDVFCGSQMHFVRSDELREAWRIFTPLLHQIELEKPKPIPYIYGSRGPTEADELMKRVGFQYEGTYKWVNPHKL

Compound: O=C(O)c1ccc(Cl)c(NC(=S)NC(=O)c2cccc(COc3ccccc3)c2)c1
- IC50 [1]: < 0.368 µM (active)
- IC50 [2]: 2.3 µM (active)
- IC50 [3]: 6.11 µM (active)
- IC50 [4]: 4.47 µM (active)
- EC50 [5]: > 53 µM (inactive)
- IC50 [6]: > 20 µM (inactive)

Compound: COc1ccc(NN=C2C(=O)NC(=S)NC2=O)cc1
- IC50 [7]: 29.1 µM (inactive)
- IC50 [8]: 16.6 µM (active)

Compound: Oc1c(N=NC(S)=Nc2ccccc2F)c2ccccc2n1Cc1cccc(Cl)c1
- EC50 [9]: > 112 µM (not active)
- EC50 [10]: 2.69 µM (active)
- EC50 [11]: 1.71 µM (active)
- EC50 [12]: > 150 µM (not active)
- EC50 [13]: > 112 µM (not active)
- EC50 [14]: 0.676 µM (active)
- AC50 [15]: 4.15 µM (active)
- EC50 [16]: > 150 µM (not active)

Compound: Cn1c(-c2sccc2OCc2cccc(C(F)(F)F)c2)n[nH]c1=S
- EC50 [17]: > 195 µM (not active)
- IC50 [18]: > 80 µM (inactive)

Compound: CCC1CSC(Nc2ccc(C(=O)/C=C/c3ccc(OC)c(OC)c3)cc2)=N1 (stereo not drawn)
- IC50 [19]: 23.5 µM (active)
- AC50 [20]: 4.47 µM (active)
- AC50 [21]: 6.23 µM (active)
- CC50 [22]: 18.1 µM (active)
- AC50 [23]: 51.2 µM (active)

Compound: CCOC(=O)c1cnc2ccc(OCC)cc2c1NCc1ccccc1OC
- AC50 [24]: 4.51 µM (active)
- AC50 [25]: 19.4 µM (active)
- AC50 [26]: 35.4 µM (active)
- AC50 [27]: 25.7 µM (active)
- AC50 [28]: 10.6 µM (active)
